Data published in patent US5130302A, “Boronated nucleoside, nucleotide and oligonucleotide compounds, compositions and methods for using same” (Boron Bilogicals, Inc., priority 1989, dated 1992).
In brackets after ≈: the same amount, converted by molar mass. Where two headings read alike, the source gives them in different places.

Columns and labels:
[1] = test system: Tmolt acute lymphoblastic T cell leukemia; assay: Cytotoxicity, Tmolt acute lymphoblastic T cell leukemia; type: cell-based; settings: for IC50: T-cell, read-out: ED50 (cytotoxicity), Tmolt
Protocol: (§1) More specifically, the cytotoxic activity of the boron adducts of the present invention was tested on the following neoplastic cell lines:
2. Tmolt^S acute lymphoblastic T cell leukemia, S. Schreiber and N. Ikemoto, Tett. Lett 29, 3211 (1988) (grown in RPMI - 1640+10% FBS).
(§2) The cytotoxic screens were conducted according to NIH protocols, see E. Huang et al., J. Pharm. Sci. 61, 108 (1972), with 10^4 cells, growth medium, antibiotics and drugs from 0.5 to 100 μg/ml final concentration. For the L1210, Hela-S, amd Tmolt, (i.e. the suspended cells), the incubations were conducted in sterile test tubes in a final volume of 1 ml for 72 hr at 37° C. in a CO2 incubator. The cells on the third day were still in log growth phase. The number of cells/ml are determined using trypan blue exclusion and a hemocytometer. See, e.g., R. Geran, supra. For solid tumors there is plated out in wells 1×10^4 cells with 1 ml of medium+antibiotics and the other components of growth. When the controls have converged (≈95%) then the density of the cells is estimated and the ED50 values calculated.

[2] = test system: KB epidermoid oral nesopharnyx; assay: Cytotoxicity, KB epidermoid oral nasopharynx; type: cell-based; settings: Homo sapiens, read-out: ED50 (cytotoxicity), KB
Protocol: 6. KB epidermoid oral nesopharnyx. R. Geran, supra: H. Eagle, Proc. Soc. Expt.
Biol. 89, 362 (1955)(grown in EMEM +5% calf serum).
as §2

P388 = assay: Cytotoxicity, P388; type: cell-based
Protocol: as §2

[3] = test system: Lung bronchogenic MB-9812; assay: Cytotoxicity, lung bronchogenic MB-9812; type: cell-based; settings: read-out: ED50 (cytotoxicity), Lung Bronchogenic
Protocol: 4. Lung bronchogenic MB-9812, S. Aronson et al., Expt. Cell Res. 61, 1 (1970) (grown in EMEM+10% FBS+NEAA).
as §2

Hela-S = assay: Cytotoxicity, Hela-S cervical carcinoma suspended; type: cell-based; settings: Homo sapiens, read-out: ED50 (cytotoxicity), Hela-S
Protocol: 7. Hela-S, ATCC-CCL 2.2, cervical carcinoma suspended, S. Schreiber and N. Ikemoto, supra; T. Puck et al., J. Exp. Med. 103. 273 (1956) (grown in Joklik+5% FBS, Ham's F12 +5% FBS).
as §2

[4] = test system: SW480 human colorectal carcinoma; assay: Cytotoxicity, colon adenocarcinoma SW480 human colorectal carcinoma; type: cell-based
Protocol: as §1
3. Colon adenocarcinoma SW480 human colorectal carcinoma. A. Leibovitz et al., Cancer Res. 36, 4562 (1976) (grown in L15+10% FBS).
as §2

[5] = test system: L1210 lymphoid leukemia cells; assay: Cytotoxicity, L1210 lymphoid leukemia cells; type: cell-based; settings: Mus musculus, read-out: ED50 (cytotoxicity), L1210
Protocol: as §1
1. L1210 lymphoid leukemia cells, R. Geran et al., Cancer Chemotherapy Reports 3, 7 (1972).(grown in RPMI+15% FBS+antibiotics).
as §2

[6] = test system: Human glioma cell EH 118 MG; assay: Cytotoxicity, human glioma cell EH 118 MG; type: cell-based; settings: read-out: ED50 (cytotoxicity), Glioma
Protocol: 9. Human glioma cell EH 118 MG transformed stain of Rous sarcoma virus, J. Lutton et al., J. Biol. Chem. 254, 11181 (1979) (grown in DMEM-H+10% FCS).
as §2

Human Osteosarcoma TE418 = assay: Cytotoxicity, human osteosarcoma TE418; type: cell-based
Protocol: 5. Human Osteosarcoma TE418. H. Smith et al., Int. J. Cancer 17, 219 (1976) (grown in DMEM+10% FBS).
as §2

[7] = Stability in aqueous medium by HPLC; type: physicochemical; settings: for remaining at 168 h: period of 168 h, read-out: stable in aqueous medium; for stability in aqueous medium: in words
Protocol: By HPLC, compounds 3a, 3b, and 3d in aqueous medium (0.01 M TEAAc) are >94% stable over a period of 168 h. […], however, is >50% decomposed during this period.

inflammatory response = assay: Anti-inflammatory activity, carrageenan-injected hind foot; type: in vivo, CF1 male mice; settings: mice; for Antiinflammatory Activity, % inhibition: 8 mg/kg/day, intraperitoneal, 3 hours and 30 minutes prior to carrageenan
Protocol: CF1 male mice (~25 g) were administered test drugs at 5-40 mg/kg in 0.05% Tween 80--H2 O intraperitoneally 3 hours prior to and 30 minutes prior to the injection of 0.2 ml of 1% carrageenan in 0.9% saline into the plantar surface of the right hind foot. Saline was injected into the left hind foot, which serves as a base line. After 3 hours, both feet were excised at the tibiotarsal (ankle) joint according to standard procedures. See C. Winter et al., Proc. Soc. Expt. Biol Med. 544, 111 (1962); A. Roszkawski et al., J. Pharm. Exp. Ther. 179, 114 (1971). Control mice afforded a 78±3 mg increase in paw weight.

serum cholesterol levels = assay: Antihyperlipidemic activity, serum cholesterol; type: in vivo, male CF1 mice; settings: mice; for Hypolipidemic: Cholesterol Inhibition, % inhibition: 8 mg/kg/day, intraperitoneal for 16d
Protocol: (§3) Compounds to be tested were suspended in 1% aqueous carboxymethylcellulose,homogenized and administered to male CF1 mice (25 g) intraperitoneally for 16d. On days 9 and 16, blood was obtained by tail vein bleeding, and the serum was separated by centrifugation for three minutes. The serum cholesterol levels were determined by a modification of the Liebermann--Burchard reaction in accordance with known techniques. See A. Ness, et al., Clin. Chim. Acta 10, 229 (1964). Serum triglyceride levels were determined with a commercial kit, the Fisher Hycel Triglyceride Test Kit, for a different group of animals bled on day 16.

[8] = test system: Serum triglyceride levels; assay: Antihyperlipidemic activity, serum triglyceride; type: in vivo, male CF1 mice; settings: mice; for Hypolipidemic: Triglyceride Inhibition, % inhibition: 8 mg/kg/day, intraperitoneal, bled on day 16
Protocol: as §3

[9] = Mus musculus, P388, read-out: ED50 (cytotoxicity), P388
[10] = Homo sapiens, SW480, read-out: ED50 (cytotoxicity), Adeno Carcinoma SW480
[11] = read-out: ED50 (cytotoxicity), Osteo sarcoma
[12] = Osteosarcoma TE418, read-out: ED50 (cytotoxicity), Osteo sarcoma
[13] = Mus musculus, P388; read-out: ED50 (cytotoxicity), P388
[14] = Homo sapiens, SW480; read-out: ED50 (cytotoxicity), Adeno Carcinoma SW480

Row | Compound | IC50 ([1]; 72 h) [µg/mL] | IC50 [2] [µg/mL] | IC50 (P388; [9]) [µg/mL] | IC50 [3] [µg/mL] | IC50 (Hela-S; HeLa, 72 h) [µg/mL] | IC50 [4, 10] [µg/mL] | IC50 ([5]; L1210, 72 h) [µg/mL] | IC50 [6] [µg/mL] | IC50 ([1]; Tmolt, 72 hr at 37° C.) [µg/mL] | Antiinflammatory Activity, % inhibition (inflammatory response) [%] | IC50 (P388; [13]) [µg/mL] | IC50 ([3]; Lung bronchogenic MB-9812) [µg/mL] | IC50 (Hela-S; Hela-S, 72 hr at 37° C.) [µg/mL] | IC50 [4, 14] [µg/mL] | IC50 ([5]; L1210, 72 hr at 37° C.) [µg/mL] | IC50 ([6]; Glioma EH 118 MG) [µg/mL] | Hypolipidemic: Cholesterol Inhibition, % inhibition (serum cholesterol levels) [%] | Hypolipidemic: Triglyceride Inhibition, % inhibition [8] [%] | further results
1 | CC(C)[Si](OC[C@H]1O[C@@H](n2c[n+]([BH2-]C#N)c3c(=O)[nH]cnc32)C[C@@H]1O[Si](C(C)C)(C(C)C)C(C)C)(C(C)C)C(C)C [Compound 2b, 3', 5-O-Bis(triisopropylislyl)-2'-deoxyinosine-N7-cyanoborane] | 6.49 (≈ 10.7 µM) | 5.29 (≈ 8.76 µM) | 7.31 (≈ 12.1 µM) | 6.2 (≈ 10.3 µM) | 3.26 (≈ 5.4 µM) | 2.57 (≈ 4.26 µM) | 4 (≈ 6.63 µM) | 6.21 (≈ 10.3 µM) |  |  |  |  |  |  |  |  |  |  | 
2 | CC(C)[Si](OC[C@H]1O[C@@H](n2ccc(N)[n+]([BH2-]C#N)c2=O)C[C@@H]1O)(C(C)C)C(C)C [Compound 4] | 2.34 (≈ 5.54 µM) | 4.07 (≈ 9.64 µM) |  | 5.58 (≈ 13.2 µM) | 3.63 (≈ 8.59 µM) | 2.71 (≈ 6.42 µM) | 2.92 (≈ 6.91 µM) | 3.43 (≈ 8.12 µM) |  |  |  |  |  |  |  |  |  |  | IC50 (Human Osteosarcoma TE418; [11]): 6.62 µg/mL (≈ 15.7 µM)
3 | N#C[BH2-][n+]1cn([C@H]2C[C@H](O)[C@@H](CO)O2)c2nc[nH]c(=O)c21 [Compound 3b, 2'-Deoxyinosine-N^7-cyanoborane] |  | 3.45 (≈ 11.9 µM) |  |  |  |  |  |  | 1.73 (≈ 5.94 µM) | 25 | 7.21 (≈ 24.8 µM) | 4.93 (≈ 16.9 µM) | 2.41 (≈ 8.28 µM) | 3.86 (≈ 13.3 µM) | 4 (≈ 13.7 µM) | 8.49 (≈ 29.2 µM) | 19 | 30 | degraded at 168 h ([7]; 0.01 M TEAAc, 168 h, HPLC, read-out: decomposed in aqueous medium): > 50%; remaining at 168 h ([7]; 0.01 M TEAAc, HPLC): > 94%; IC50 (Human Osteosarcoma TE418; [12]): 7.28 µg/mL (≈ 25 µM)
4 | CC(C)[Si](OC[C@H]1O[C@@H](n2ccc(N)[n+]([BH2-]C#N)c2=O)C[C@@H]1O[Si](C(C)C)(C(C)C)C(C)C)(C(C)C)C(C)C [Compound 2d, 3', 5'-O-Bis(triisopropylsilyl)-2'-deoxycytidine-N3-cyanoborane] |  | 5.72 (≈ 9.88 µM) |  |  |  |  |  |  | 3.36 (≈ 5.81 µM) |  | 7.26 (≈ 12.5 µM) | 6.6 (≈ 11.4 µM) | 2.94 (≈ 5.08 µM) | 2.73 (≈ 4.72 µM) | 4.78 (≈ 8.26 µM) | 6.77 (≈ 11.7 µM) |  |  | 
5 | CCCCC1C(=O)N(c2ccccc2)N(c2ccccc2)C1=O [phenylbutazone, reference compound] |  |  |  |  |  |  |  |  |  |  |  |  |  |  |  |  |  |  | Antiinflammatory Activity, % inhibition (Standard) (inflammatory response; standard, column head 8 mg/kg/day): 47%
6 | N#C[BH2-][n+]1cnc2c(ncn2[C@H]2C[C@H](O)[C@@H](CO)O2)c1N [Compound 3c, 2'-Deoxyadenosine-N1-cyanoborane] |  | 3.12 (≈ 10.8 µM) |  |  |  |  |  |  | 1.36 (≈ 4.69 µM) | 22 | 5.96 (≈ 20.5 µM) | 5.26 (≈ 18.1 µM) | 2.35 (≈ 8.1 µM) | 2.82 (≈ 9.72 µM) | 3.68 (≈ 12.7 µM) | 6.88 (≈ 23.7 µM) | 44 | 37 | stability in aqueous medium [7]: good stability; IC50 (Human Osteosarcoma TE418; [12]): 7.39 µg/mL (≈ 25.5 µM); activity in T molt-3 screen ([1]; in words): potent activity; activity in human colorectal adenocarcinoma screen ([4]; in words): potent activity
7 | CC(C)[Si](OC[C@H]1O[C@@H](n2c[n+]([BH2-]C#N)c3c(=O)[nH]c(N)nc32)C[C@@H]1O[Si](C(C)C)(C(C)C)C(C)C)(C(C)C)C(C)C [Compound 2a, 3',5'-O-Bis(triisopropylsilyl)-2'-deoxyguanosine N7-cyanoborane] | 2.26 (≈ 3.65 µM) | 2.67 (≈ 4.31 µM) | 5.13 (≈ 8.29 µM) | 4.05 (≈ 6.55 µM) | 2.83 (≈ 4.57 µM) | 2.67 (≈ 4.31 µM) | 6.05 (≈ 9.78 µM) | 7.61 (≈ 12.3 µM) |  |  |  |  |  |  |  |  |  |  | IC50 (Human Osteosarcoma TE418; [11]): 7.2 µg/mL (≈ 11.6 µM)
8 | CC(C)[Si](OC[C@H]1O[C@@H](n2cnc3c(N)[n+]([BH2-]C#N)cnc32)C[C@@H]1O[Si](C(C)C)(C(C)C)C(C)C)(C(C)C)C(C)C [Compound 2c, 3', 5'-O-Bis(triisopropylsilyl)-2'-deoxyadenosine-N1-cyanoborane] | 1.88 (≈ 3.12 µM) | 5.79 (≈ 9.61 µM) | 7.46 (≈ 12.4 µM) | 5.58 (≈ 9.26 µM) | 3.42 (≈ 5.67 µM) | 2.87 (≈ 4.76 µM) | 6.86 (≈ 11.4 µM) | 4.99 (≈ 8.28 µM) |  |  |  |  |  |  |  |  |  |  | 
9 | CCOC(=O)C(C)(C)Oc1ccc(Cl)cc1 [clofibrate, reference compound] |  |  |  |  |  |  |  |  |  |  |  |  |  |  |  |  |  |  | Hypolipidemic: Cholesterol Inhibition, % inhibition (Standard) (serum cholesterol levels; 130 mg/kg/day): 13%; Hypolipidemic: Triglyceride Inhibition, % inhibition (Standard) ([8]; standard (clofibrate at 130 mg/kg/day)): 25%
10 | N#C[BH2-][n+]1cn([C@H]2C[C@H](O)[C@@H](CO)O2)c2nc(N)[nH]c(=O)c21 [Compound 3a, 2'-Deoxyguanosine-N7-cyanoborane] |  |  |  |  |  |  |  |  |  | 22 | 5.87 (≈ 19.2 µM) |  |  |  | 5.08 (≈ 16.6 µM) |  | 44 | 37 | remaining at 168 h ([7]; 0.01 M TEAAc, HPLC): > 94%; stability in aqueous medium [7]: good stability
